Measured values published in US9266813B2, “Stilbenoid compound as inhibitor for squamous carcinoma and hepatoma and uses thereof” (AnnCare Bio-Tech Center Inc., priority 2013, dated 2016).
Converted amounts (≈) assume the structure as drawn. Like-named read-outs stand apart in the source and are kept apart here.

What was measured:
Water solubility assay = format: physicochemical; conditions: read-out: Water solubility, Content
Text: The water solubility of the compounds of the present invention can be determined by methods known in the art and the result is shown in Table 3.

CAR cells = assay: MTT assay, antiproliferation on cisplatin-resistant head and neck squamous carcinoma (CAR) cells; format: cell-based, human; conditions: Homo sapiens, CAR cells, MTT
Protocol: The human head and neck carcinoma cell line CAL27 was obtained from American Tissue Culture Collection (ATCC). The cisplatin-resistant cell line CAR (CAL27-cisplatin resistance) was established by clonal selection of CAL27 using 10 cycles of 1 passage treatment with 10-80 μM of cisplatin (Sigma-Aldrich Corp. (St. Louis, Mo., USA) followed by a recovery period of another passage. CAR cells were cultivated in Dulbecco's modified Eagle's medium (DMEM) supplemented with 10% FBS, 100 μg/mL streptomycin, 100 U/mL penicillin G, 2 mM L-glutamine (Gibco by Life Technologies (Carlsbad, Calif., USA)) and 80 μM of cisplatin (Sigma-Aldrich Corp. (St. Louis, Mo., USA).
(§1) Antiproliferations of compound 2-4 were determined by an improved MTT assay. The CAR cells were individually plated at a density of 2×10^4 cells/well onto 96-well plates and treated with Dimethyl sulfoxide (DMSO) alone (0.5% (v/v) in media served as a vehicle control) and various concentrations (0, 25, 50, 75 and 100 μM) of compound 2-4 for 24 and 48 hours. Following the above treatments, the supernatant was discarded before a 100 μL solution of MTT (500 μg/ml) was added to each well for 4 hours at 37 °C. After incubation, the medium was replaced by the addition of 200 μL DMSO to solubilize the violet formazan crystal produced from MTT. The absorbance of the dissolved formazan grained within the cells was measured at 570 nm by a microplate reader to calculate viability (data shown as % of control).
(§2) Please refer to Table 1. Hep3B cells and CAR cells were treated by different concentrations of the compounds of the invention for 48 and 72 hours, and the antiprolifieration effect of such compounds was evaluated using MTT assay. Data are presented as IC50 (μM), the concentration of 50% proliferation-inhibitory effect.
MTT assay was utilized and CAR cells were treated with compound 2-4 in different concentration for 24, 48 and 72 hours. […] The IC50 after 72 hours of treatment was 50 μM.

Hep3B cells = assay: MTT assay, antiproliferation on Hep3B cells; format: cell-based; conditions: for IC50: Homo sapiens, Hep3B cells, MTT; for anticancer activity compared with resveratrol and pterostilbene: Hep 3B and CAR cells, Table 1
Protocol: as §1, §2
The anti-proliferative ability of compound 2-4 in hepatocellular carcinoma was evaluated in Hep3B cells using MTT assay. Hep3B cells were treated with various concentrations of compound 2-4 for 48 and 72 hours.

[1] = dose up to 3.0 g/kg/day; cited from earlier work
[2] = 48 hours, read-out: CAR (IC50 (μM)) 48 hours
[3] = 72 hours, read-out: CAR (IC50 (μM)) 72 hours
[4] = 48 hours, read-out: Hep 3B (IC50 (μM)) 48 hours
[5] = 72 hours, read-out: Hep 3B (IC50 (μM)) 72 hours

Compound | solubility (Water solubility assay) [µg/mL] | IC50 (CAR cells; [2]) [µM] | IC50 (CAR cells; [3]) [µM] | IC50 (Hep3B cells; [4]) [µM] | IC50 (Hep3B cells; [5]) [µM] | anticancer activity compared with resveratrol and pterostilbene (Hep3B cells) | 28 days subchronic toxicity [1]
CC(CO)(CO)C(=O)Oc1ccc(/C=C/c2cc(OC(=O)C(C)(CO)CO)cc(OC(=O)C(C)(CO)CO)c2)cc1 [Compound 4-3, 3,5,4′-[2,2-Bis(hydroxymethyl)propanoxy]-resveratrol] | 372 (≈ 646 µM) | 149 | 124 | 151 | 95 | – | –
CC(=O)Oc1cc(/C=C/c2ccc(OC(=O)C(C)(CO)CO)cc2)cc(OC(C)=O)c1 [Compound 9-4, 3,5-acetyl-4′-[2,2-Bis(hydroxymethyl)propanoxy]-resveratrol] | 306 (≈ 715 µM) | 103 | 116 | 148 | 62 | – | –
COc1ccc(/C=C/c2cc(OC(=O)C(C)(CO)CO)cc(OC(=O)C(C)(CO)CO)c2)cc1 [Compound 13-3, 3,5-[2,2-Bis(hydroxymethyl)propanoxy]-4′-methyl-resveratrol] | 337 (≈ 710 µM) | 73.9 | 70.8 | 53.4 | 39.1 | more potent anticancer activity than resveratrol and pterostilbene | –
Oc1ccc(/C=C/c2cc(O)cc(O)c2)cc1 [Resveratrol, 3,5,4′-trihydroxy-trans-stilbene, reference compound] | 107 (≈ 470 µM) | 153 | 88.3 | 96.4 | 51.6 | – | –
CC(=O)Oc1cc(/C=C/c2ccc(OC(=O)C(C)(CO)CO)cc2)cc(OC(=O)C(C)(CO)CO)c1 [Compound 10-4, 3-acetyl-5,4′-[2,2-Bis(hydroxymethyl)propanoxy]-resveratrol] | > 1000 | 122 | 119 | > 200 | > 200 | – | –
CC(CO)(CO)C(=O)Oc1cc(/C=C/c2ccc(O)cc2)cc(OC(=O)C(C)(CO)CO)c1 [Compound 6-3, 3,5-[2,2-Bis(hydroxymethyl)propanoxy]-resveratrol] | 455 (≈ 988 µM) | 91.4 | 77 | 137 | 55.3 | – | –
COc1cc(/C=C/c2ccc(OC(=O)C3OC(C)(C)OC3C3COC(C)(C)O3)cc2)cc(OC)c1 [Compound 14-5, Pterostilbene D-Ribonic Acid Diacetonide] | < 10 | > 200 | > 200 | 94.7 | 59.5 | – | –
COc1cc(/C=C/c2ccc(O)cc2)cc(OC)c1 [Pterostilbene, reference compound] | 48 (≈ 187 µM) | 100 | 98.3 | 75.3 | 48.9 | – | no significant adverse biochemical parameters and toxic effects were noted
CC(CO)(CO)C(=O)Oc1ccc(/C=C/c2cc(O)cc(OC(=O)C(C)(CO)CO)c2)cc1 [Compound 3-6, 3,4′-[2,2-Bis(hydroxymethyl)propanoxy]-resveratrol] | 136 (≈ 295 µM) | 105 | 113 | 54.2 | 36.8 | more potent anticancer activity than resveratrol and pterostilbene | –
CC(CO)(CO)C(=O)Oc1ccc(/C=C/c2cc(O)cc(O)c2)cc1 [Compound 3-5] | 52.9 (≈ 154 µM) | 169 | 133 | 144 | 47.8 | – | –

Compounds with a lower IC50 (CAR cells; [2]), results first:

solubility (Water solubility assay) [µg/mL] | IC50 (CAR cells; [2]) [µM] | IC50 (CAR cells; [3]) [µM] | IC50 (Hep3B cells; [4]) [µM] | IC50 (Hep3B cells; [5]) [µM] | Compound | anticancer activity compared with resveratrol and pterostilbene (Hep3B cells) | 28 days subchronic toxicity [1]
81.9 (≈ 205 µM) | 52 | 50.3 | 85.2 | 36.8 | COc1cc(/C=C/c2ccc(OC(=O)C(C)(CO)CO)cc2)cc(OC(C)=O)c1 [Compound 12-3, 5-acetyl-3-methyl-4′-[2,2-Bis(hydroxymethyl)propanoxy]-resveratrol] | more potent anticancer activity than resveratrol and pterostilbene | –
53.4 (≈ 143 µM) | 64.2 | 67.3 | 70.8 | 48.7 | COc1ccc(/C=C/c2cc(OC)cc(OC(=O)C(C)(CO)CO)c2)cc1 [Compound 7-3, 3,4′methyl-5-[2,2-Bis(hydroxymethyl)propanoxy]-resveratrol] | more potent anticancer activity than resveratrol and pterostilbene | –
410 (≈ 1190 µM) | 54.9 | 113 | 83.5 | 68.9 | CC(CO)(CO)C(=O)Oc1cc(O)cc(/C=C/c2ccc(O)cc2)c1 [Compound 5-3] | – | –
> 1000 | 56.5 | 59.8 | 106 | 66.5 | COc1cc(/C=C/c2ccc(OC(=O)C(C)(CO)CO)cc2)cc(OC(=O)C(C)(CO)CO)c1 [Compound 8-3, 3-methyl-5,4′-[2,2-Bis(hydroxymethyl)propanoxy]-resveratrol] | – | –
35.8 (≈ 99.9 µM) | 67.3 | 64 | 88.9 | 33.2 | COc1cc(O)cc(/C=C/c2ccc(OC(=O)C(C)(CO)CO)cc2)c1 [Compound 11-3, 3-methyl-4′-[2,2-Bis(hydroxymethyl)propanoxy]-resveratrol] | more potent anticancer activity than resveratrol and pterostilbene | –
